system: PKC mediated IL-2 production; assay: IL-2 ELISA, human primary T cell, anti CD3+CD28+; assay type: cell-based; conditions: Homo sapiens, T-cell, 24 h, human primary T cells stimulated with αCD3 and αCD28, 24 hours
How it was run: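 IL-2 was quantified by ELISA in 24 h supernatants from primary human T cells given a 1 h compound pre-treatment at 37° C. These cells had been expanded from blood mononuclear cells on αCD3/αCD28 with IL-2, and the IL-2 was removed by washing. Stimulation used plate-bound αCD3 ([…]) plus αCD28 (5 μg/ml); the counter assay used PMA (0.5 ng/ml) with ionomycin (0.1 uM) instead.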

EC50 | Structure (SMILES)
100 to 500 nM | CCN(CC)CCOc1cc(F)c(Nc2ncc(F)c(N[C@@H]3C[C@@H]4CCCN4C(C)(C)C3)n2)cc1-n1nnn(C)c1=O [Compound 194, 1-(2-(2-(diethylamino)ethoxy)-5-((4-(((7R,8aS)-5,5-dimethyloctahydroindolizin-7-yl)amino)-5-fluoropyrimidin-2-yl)amino)-4-fluorophenyl)-4-methyl-1,4-dihydro-5H-tetrazol-5-one]
500 to 1000 nM | Cn1nnn(-c2cc(Nc3ncc(F)c(N[C@@H]4C[C@@H]5CCCN5C(C)(C)C4)n3)c(F)cc2OCCN2CCOCC2)c1=O [Compound 195, 1-(5-((4-(((7R,8aS)-5,5-dimethyloctahydroindolizin-7-yl)amino)-5-fluoropyrimidin-2-yl)amino)-4-fluoro-2-(2-morpholinoethoxy)phenyl)-4-methyl-1,4-dihydro-5H-tetrazol-5-one]
100 to 500 nM | CC1(C)C[C@H](Nc2nc(Nc3ccc(O)c(-n4cnnn4)c3)ncc2F)C[C@@H]2CCCN21 [Compound 196, 4-((4-(((7R,8aS)-5,5-dimethyloctahydroindolizin-7-yl)amino)-5-fluoropyrimidin-2-yl)amino)-2-(1H-tetrazol-1-yl)phenol]
100 to 500 nM | CC(=O)O[C@H]1[C@H](OC(C)=O)C(Oc2ccc(Nc3ncc(F)c(N[C@@H]4C[C@@H]5CCCN5C(C)(C)C4)n3)cc2C#N)OC[C@H]1OC(C)=O (stereo partly drawn) [Compound 197, (3S,4R,5R)-2-(2-cyano-4-((4-(((7R,8aS)-5,5-dimethyloctahydroindolizin-7-yl)amino)-5-fluoropyrimidin-2-yl)amino)phenoxy)tetrahydro-2H-pyran-3,4,5-triyl triacetate]
1000 to 10000 nM | COCCOCCOc1cc(F)c(Nc2ncc(F)c(N[C@@H]3C[C@@H]4CCCN4C(C)(C)C3)n2)cc1-n1nnn(C)c1=O [Compound 198, 1-(5-((4-(((7R,8aS)-5,5-dimethyloctahydroindolizin-7-yl)amino)-5-fluoropyrimidin-2-yl)amino)-4-fluoro-2-(2-(2-methoxyethoxy)ethoxy)phenyl)-4-methyl-1,4-dihydro-5H-tetrazol-5-one]
500 to 1000 nM | Cn1nnn(-c2cc(Nc3ncc(F)c(N[C@@H]4C[C@@H]5CCCN5C(C)(C)C4)n3)c(F)cc2OCC(O)CO)c1=O (stereo partly drawn) [Compound 199, 1-(2-(2,3-dihydroxypropoxy)-5-((4-(((7R,8aS)-5,5-dimethyloctahydroindolizin-7-yl)amino)-5-fluoropyrimidin-2-yl)amino)-4-fluorophenyl)-4-methyl-1,4-dihydro-5H-tetrazol-5-one]
100 to 500 nM | CC(O)COc1ccc(Nc2ncc(F)c(N[C@@H]3C[C@@H]4CCCN4C(C)(C)C3)n2)cc1C#N (stereo partly drawn) [Compound 201, 5-((4-(((7R,8aS)-5,5-dimethyloctahydroindolizin-7-yl)amino)-5-fluoropyrimidin-2-yl)amino)-2-(2-hydroxypropoxy)benzonitrile]
< 100 nM | COCCOc1ccc(Nc2ncc(F)c(N[C@@H]3C[C@@H]4CCCN4C(C)(C)C3)n2)cc1-n1cnnn1 [Compound 202, N4-((7R,8aS)-5,5-dimethyloctahydroindolizin-7-yl)-5-fluoro-N2-(4-(2-methoxyethoxy)-3-(1H-tetrazol-1-yl)phenyl)pyrimidine-2,4-diamine]
< 100 nM | CC1(COc2ccc(Nc3ncc(F)c(N[C@@H]4C[C@@H]5CCCN5C(C)(C)C4)n3)cc2-n2cnnn2)COC1 [Compound 203, N4-((7R,8aS)-5,5-dimethyloctahydroindolizin-7-yl)-5-fluoro-N2-(4-((3-methyloxetan-3-yl)methoxy)-3-(1H-tetrazol-1-yl)phenyl)pyrimidine-2,4-diamine]

same assay, conditions: T-cell, human primary T cells stimulated with αCD3 and αCD28, 24 hours

Structure (SMILES) | EC50
CC(O)COc1cc(F)c(Nc2ncc(F)c(N[C@@H]3C[C@@H]4CCCN4C(C)(C)C3)n2)cc1-n1nnn(C)c1=O (stereo partly drawn) [Compound 200, 1-(5-((4-(((7R,8aS)-5,5-dimethyloctahydroindolizin-7-yl)amino)-5-fluoropyrimidin-2-yl)amino)-4-fluoro-2-(2-hydroxypropoxy)phenyl)-4-methyl-1,4-dihydro-5H-tetrazol-5-one] | < 100 nM

Reference: patent US9682976B2, “Protein kinase C inhibitors and uses thereof” (Rigel Pharmaceuticals, Inc., priority 2012, dated 2017)
